Experimental data from patent publication US20220380342A1, “BIPHENYL DERIVATIVES FOR BLOCKING PD-1/PD-L1 INTERACTION, PREPARATION METHOD THEREFOR AND USE THEREOF” (Abbisko Therapeutics Co., Ltd., priority 2019, published 2022).

Legend:
[1] = biological target: T1, interaction between PD-1 and PD-L1 expressed on cell surfaces (Jurkat/NF-κB-luc/PD1 cells cocultured with Raji-PD-L1 cells) (Homo sapiens, UniProt Q9NZQ7); experiment: Jurkat reporter gene cellular assay; type: cell-based; details: OKT3 1 μg/mL stimulation, 6 hrs, activation fold vs DMSO
T1 construct: expressed in transfected cells; host or cells: Raji cells (PD-L1); Jurkat cells (PD-1, NF-κB-luc reporter)
Method: The effect of compounds of the examples of the present invention on the interaction between PD-1 and PD-L1 expressed on cell surfaces, and the related influence on T cell functions, were determined by a Jurkat reporter gene cellular assay.
Briefly, the reporter gene plasmid of NF-κB-luc and the plasmid of human PD-1 were transfected into Jurkat cells to establish a stably transfected cell line capable of stably expressing both PD-1 and NF-κB-Luc reporter genes; the expression level of PD-1 on the cell surface was confirmed by flow cytometry; and the expression of the reporter gene was confirmed via the response of the reporter gene stimulated by OKT-3 and Raji cells.
In addition, the plasmid of human PD-L1 was transfected into Raji cells to obtain a cell line capable of stably expressing PD-L1. Jurkat/NF-κB-luc/PD1 cells and Raji-PD-L1 cells were then cocultured and stimulated with OKT-3. On this basis, the compounds were added, and the enhancement of the signal pathway of T cell activation by the inhibitory effect of the compounds on the interaction between PD-1 and PD-L1 was evaluated by readings of reporter gene responses. The specific experimental process was as follows:
1) 30 μL of compound or antibody solution was added to each well of a white 96-well plate (Corning, 3610) at different diluted concentrations, and 10 μL of OKT3 (Biolegend, 317326) was then added (the final concentration of OKT3: 1 μg/mL);
2) 20 μL of Raji-PD-L1 cell suspension was added to each well with 5*10^4 cells for each well, and was incubated in an incubator for 20 min;
3) 20 μL of Jurkat/NF-Kb-luc/PD-1 cell suspension was added to each well with 5*10^4 cells for each well, and was well mixed, and 6 hrs later, Bright-glo (Promega, E2620) was applied and plates were read on Envision;
4) The reading of each well treated with the compound was compared with the reading of each well treated with DMSO to obtain the activation fold of the compound; and
5) EC50 values of compounds of the examples of the present invention were determined by non-linear regression analysis of activation folds at different compound concentrations.

[2] = biological target: T2, interaction between PD-1 and PD-L1 (Homo sapiens, UniProt Q9NZQ7); experiment: PD1-PDL1 HTRF binding activity test; details: Cisbio PD-1/PD-L1 binding assay kit; percent inhibition vs DMSO
T2 construct: purchased Cisbio 64ICP01PEG or 64ICP01PEH
Method: The effect of compounds of the examples of the present invention on the interaction between PD-1 and PD-L1 was determined by the PD-1/PD-L1 binding assay kit from Cisbio (#64ICP01PEG or 64ICP01PEH). The detailed experimental process was as follows:
1) Pre-diluted compound solution, 4 μL of Tag1-PD-L1 and 4 μL of Tag2-PD1 were added to each well of a 384-well plate;
2) After the mixture was incubated at room temperature for 15 min, 5 μL of anti-Tag1-Eu3+ antibody and 5 μL of anti-Tag2-XL665 antibody were then added;
3) After incubated for 2 hrs at room temperature or overnight at 4° C., plates were read on Envision of Perkin Elmer; and readings at 665 nm and 620 nm were recorded, and the ratio of the two readings was taken as a reading for each well;
4) The reading of each well after compound treatment was compared with the reading of DMSO treated wells to obtain the percent inhibition of the compound; and
5) IC50 values of compounds of the examples of the present invention were determined by non-linear regression analysis of percent inhibition at different compound concentrations.

T1 sequence (Q9NZQ7 19-290): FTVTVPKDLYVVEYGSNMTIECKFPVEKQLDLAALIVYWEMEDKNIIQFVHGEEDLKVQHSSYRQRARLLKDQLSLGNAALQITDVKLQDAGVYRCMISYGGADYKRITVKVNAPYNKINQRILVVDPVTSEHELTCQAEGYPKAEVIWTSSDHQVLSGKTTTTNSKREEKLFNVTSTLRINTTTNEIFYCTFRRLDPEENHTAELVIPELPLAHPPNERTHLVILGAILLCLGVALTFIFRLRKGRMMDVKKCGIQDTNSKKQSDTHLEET
T2 sequence (Q9NZQ7 19-238 limits assumed): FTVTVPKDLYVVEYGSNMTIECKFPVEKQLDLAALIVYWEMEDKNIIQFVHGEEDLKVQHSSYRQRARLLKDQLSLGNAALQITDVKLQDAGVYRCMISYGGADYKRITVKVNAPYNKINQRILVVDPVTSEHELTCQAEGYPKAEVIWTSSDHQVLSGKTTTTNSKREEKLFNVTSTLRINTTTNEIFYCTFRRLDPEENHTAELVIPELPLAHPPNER

EC50 [1] [nM] | IC50 [2] [nM] | SMILES
219 | 4.77 | CCOC(=O)[C@@H](CO)NCc1cnc(C(=O)Nc2cccc(-c3cccc(NC(=O)c4cc(C5CC5)c(CN[C@H](C)CO)cn4)c3C)c2C)cc1C1CC1 [Example 38-1, Ethyl ((4-cyclopropyl-6-((3′-(4-cyclopropyl-5-((((R)-1-hydroxypropan-2-yl)amino)methyl)picolinamido)-2,2′-dimethyl-[1,1′-biphenyl]-3-yl)carbamoyl)pyridin-3-yl)methyl)-D-serinate]
258 | 5.77 | CCOC(=O)[C@@H](CO)NCc1cnc(C(=O)Nc2cccc(-c3cccc(NC(=O)c4cc(C5CC5)c(CN5CC[C@@H](O)C5)cn4)c3C)c2C)cc1C1CC1 [Example 53-1, Ethyl ((4-cyclopropyl-6-((3′-(4-cyclopropyl-5-(((R)-3-hydroxypyrrolidin-1-yl)methyl)picolinamido)-2,2′-dimethyl-[1,1′-biphenyl]-3-yl)carbamoyl)pyridin-3-yl)methyl)-D-serinate]
231 | 3.03 | CCOC(=O)[C@@H](CO)NCc1cnc(C(=O)Nc2cccc(-c3cccc(NC(=O)c4cc(C5CC5)c(CNCCO)cn4)c3C)c2C)cc1C1CC1 [Example 35-1, ethyl ((4-cyclopropyl-6-((3′-(4-cyclopropyl-5-(((2-hydroxyethyl)amino)methyl)picolinamido)-2,2′-dimethyl-[1,1′-biphenyl]-3-yl)carbamoyl)pyridin-3-yl)methyl)-D-serinate]
 | 64.3 | CCOC(=O)[C@@H](CO)NCc1cnc(C(=O)Nc2cccc(-c3cccc(NC(=O)c4cc(C5CC5)c(CN5CC(C)(O)C5)cn4)c3C)c2C)cc1C1CC1 [Example 36-1, ethyl ((4-cyclopropyl-6-((3′-(4-cyclopropyl-5-((3-hydroxy-3-methylazetidin-1-yl)methyl)picolinamido)-2,2′-dimethyl-[1,1′-biphenyl]-3-yl)carbamoyl)pyridin-3-yl)methyl)-D-serinate]

The remaining lines, values behind:

SMILES | EC50 [1] [nM] | IC50 [2] [nM]
Cc1c(NC(=O)c2cc(C3CC3)c(CN[C@H](CO)C(=O)O)cn2)cccc1-c1cccc(NC(=O)c2cc(C3CC3)c(CN3CCC[C@@H]3CO)cn2)c1C [Example 55] | 99.5 | 3.18
Cc1c(NC(=O)c2cc(C3CC3)c(CN3CC[C@H](O)C3)cn2)cccc1-c1cccc(NC(=O)c2cc(C3CC3)c(CN3CCCC[C@H]3C(=O)O)cn2)c1C [Example 14, (S)-1-((4-cyclopropyl-6-((3′-(4-cyclopropyl-5-(((S)-3-hydroxypyrrolidin-1-yl)methyl)picolinamido)-2,2′-dimethyl-[1,1′-biphenyl]-3-yl)carbamoyl)pyridin-3-yl)methyl)piperidine-2-carboxylic acid] | 8.2 | 1.76
CCNCc1cnc(C(=O)Nc2cccc(-c3cccc(NC(=O)c4cc(C5CC5)c(CN5CCCC[C@H]5C(=O)O)cn4)c3C)c2C)cc1C1CC1 [Example 8, (S)-1-((4-cyclopropyl-6-((3′-(4-cyclopropyl-5-((ethylamino)methyl)picolinamido)-2,2′-dimethyl-[1,1′-biphenyl]-3-yl)carbamoyl)pyridin-3-yl)methyl) piperidine-2-carboxylic acid] | 23.8 | 1.27
Cc1c(NC(=O)c2cc(C3CC3)c(CNC3COC3)cn2)cccc1-c1cccc(NC(=O)c2cc(C3CC3)c(CN3CCCC[C@H]3C(=O)O)cn2)c1C [Example 23, (S)-1-((4-cyclopropyl-6-((3′-(4-cyclopropyl-5-((oxetan-3-ylamino)methyl)picolinamido)-2,2′-dimethyl-[1,1′-biphenyl]-3-yl)carbamoyl)pyridin-3-yl)methyl)piperidine-2-carboxylic acid] | 77.5 | 2.57
Cc1c(NC(=O)c2cc(C3CC3)c(CN[C@H]3CCC[C@@H]3O)cn2)cccc1-c1cccc(NC(=O)c2cc(C3CC3)c(CN3CCCC[C@H]3C(=O)O)cn2)c1C [Example 4, (S)-1-((4-cyclopropyl-6-((3′-(4-cyclopropyl-5-((((1S,2S)-2-hydroxycyclopentyl)amino)methyl)picolinamido)-2, 2′-dimethyl-[1,1′-biphenyl]-3-yl)carbamoyl)pyridin-3-yl)methyl)piperidine-2-carboxylic acid] | 3.2 | 1.02
Cc1c(NC(=O)c2cc(C3CC3)c(CN[C@@H]3CCC[C@H]3O)cn2)cccc1-c1cccc(NC(=O)c2cc(C3CC3)c(CN3CCCC[C@H]3C(=O)O)cn2)c1C [Example 6, (S)-1-((4-cyclopropyl-6-((3′-(4-cyclopropyl-5-((((1R,2R)-2-hydroxycyclopentyl)amino)methyl)picolinamido)-2, 2′-dimethyl-[1,1′-biphenyl]-3-yl)carbamoyl)pyridin-3-yl)methyl)piperidine-2-carboxylic acid] | 49.3 | 1.69
Cc1c(NC(=O)c2cc(C3CC3)c(CN[C@H](C)CO)cn2)cccc1-c1cccc(NC(=O)c2cc(C3CC3)c(CN3CCCC[C@H]3C(=O)O)cn2)c1C [Example 2, (S)-1-((4-cyclopropyl-6-((3′-(4-cyclopropyl-5-((((R)-1-hydroxypropan-2-yl)amino)methyl)picolinamido)-2,2′-dimethyl-[1,1′-biphenyl]-3-yl)carbamoyl)pyridin-3-yl)methyl)piperidine-2-carboxylic acid] | 9.2 | 1.21
Cc1c(NC(=O)c2cc(C3CC3)c(CNC3CCCC3)cn2)cccc1-c1cccc(NC(=O)c2cc(C3CC3)c(CN3CCCC[C@H]3C(=O)O)cn2)c1C [Example 11, (S)-1-((4-cyclopropyl-6-((3′-(4-cyclopropyl-5-((cyclopentylamino)methyl)picolinamido)-2,2′-dimethyl-[1,1′-biphenyl]-3-yl)carbamoyl)pyridin-3-yl)methyl) piperidine-2-carboxylic acid] | 14.5 | 3.19
Cc1c(NC(=O)c2cc(C3CC3)c(CNC3CCOCC3)cn2)cccc1-c1cccc(NC(=O)c2cc(C3CC3)c(CN3CCCC[C@H]3C(=O)O)cn2)c1C [Example 24, (S)-1-((4-cyclopropyl-6-((3′-(4-cyclopropyl-5-(((tetrahydro-2H-pyran-4-yl)amino)methyl)picolinamido)-2,2′-dimethyl-[1,1′-biphenyl]-3-yl)carbamoyl)pyridin-3-yl)methyl)piperidine-2-carboxylic acid] | 52 | 0.91
CCOC(=O)[C@@H](CO)NCc1cnc(C(=O)Nc2cccc(-c3cccc(NC(=O)c4cc(C5CC5)c(CN5CCCC[C@H]5C(=O)O)cn4)c3C)c2C)cc1C1CC1 [Example 29, (S)-1-((4-cyclopropyl-6-((3′-(4-cyclopropyl-5-((((R)-1-ethoxy-3-hydroxy-1-oxopropan-2-yl)amino)methyl)picolinamido)-2,2′-dimethyl-[1,1′-biphenyl]-3-yl)carbamoyl)pyridin-3-yl)methyl)piperidine-2-carboxylic acid] | 115 | 1.61
Cc1c(NC(=O)c2cc(C3CC3)c(CN3CCCC3)cn2)cccc1-c1cccc(NC(=O)c2cc(C3CC3)c(CN3CCCC[C@H]3C(=O)O)cn2)c1C [Example 12] | 10.6 | 1.02
Cc1c(NC(=O)c2cc(C3CC3)c(CNC(C)C)cn2)cccc1-c1cccc(NC(=O)c2cc(C3CC3)c(CN3CCCC[C@H]3C(=O)O)cn2)c1C [Example 9, (S)-1-((4-cyclopropyl-6-((3′-(4-cyclopropyl-5-((isopropylamino)methyl)picolinamido)-2,2′-dimethyl-[1,1′-biphenyl]-3-yl)carbamoyl)pyridin-3-yl)methyl) piperidine-2-carboxylic acid] | 33.9 | 5.1
